Patent publication US10189785B2, “Heterocyclic compound” (TAKEDA PHARMACEUTICAL COMPANY LIMITED, priority 2015, dated 2019)

What was measured:
[1] = target: T1, SPT (SPT2-expressing membrane fraction: human SPT1, human SPT2 and human ssSPTa) (Homo sapiens, UniProt O15269+O15270); assay: SPT enzyme inhibition test (Test Example 1); type: biochemical; details: read-out: Rate of inhibition (%) at 1 μM
T1 construct: Full-length human SPT1, human SPT2 and human ssSPTa used; made in house; host or cells: FreeStyle 293 cells (pcDNA3.1 vectors, cotransfection); crude membrane fraction used
T1 sequence (O15269 1-473): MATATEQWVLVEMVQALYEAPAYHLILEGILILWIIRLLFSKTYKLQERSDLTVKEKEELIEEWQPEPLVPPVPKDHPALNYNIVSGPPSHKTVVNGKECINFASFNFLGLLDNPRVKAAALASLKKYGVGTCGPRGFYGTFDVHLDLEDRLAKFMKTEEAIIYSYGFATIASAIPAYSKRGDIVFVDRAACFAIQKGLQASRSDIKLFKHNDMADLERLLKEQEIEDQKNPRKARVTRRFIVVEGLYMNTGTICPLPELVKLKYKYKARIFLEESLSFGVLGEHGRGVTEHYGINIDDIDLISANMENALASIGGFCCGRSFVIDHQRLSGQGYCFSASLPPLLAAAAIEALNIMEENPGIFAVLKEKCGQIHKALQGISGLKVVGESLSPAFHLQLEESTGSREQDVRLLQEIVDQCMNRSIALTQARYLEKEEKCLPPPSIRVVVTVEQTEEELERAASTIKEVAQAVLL
T1 sequence (O15270 1-562): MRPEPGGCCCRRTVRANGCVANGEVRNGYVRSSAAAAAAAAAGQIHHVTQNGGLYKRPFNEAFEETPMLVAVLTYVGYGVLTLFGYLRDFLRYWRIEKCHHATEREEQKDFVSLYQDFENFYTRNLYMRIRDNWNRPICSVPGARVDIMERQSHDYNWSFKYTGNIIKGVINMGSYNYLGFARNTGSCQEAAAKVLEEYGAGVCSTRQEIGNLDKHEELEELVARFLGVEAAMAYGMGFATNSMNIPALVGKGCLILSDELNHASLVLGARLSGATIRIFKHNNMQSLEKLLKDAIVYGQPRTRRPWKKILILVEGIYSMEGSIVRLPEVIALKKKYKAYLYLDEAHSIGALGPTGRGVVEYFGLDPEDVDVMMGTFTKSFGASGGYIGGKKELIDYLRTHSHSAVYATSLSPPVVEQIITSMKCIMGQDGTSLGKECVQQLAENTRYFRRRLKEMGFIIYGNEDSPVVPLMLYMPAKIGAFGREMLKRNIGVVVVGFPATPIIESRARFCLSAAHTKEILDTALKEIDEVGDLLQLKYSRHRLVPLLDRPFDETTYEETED
T1 sequence (Q969W0 1-71 partner): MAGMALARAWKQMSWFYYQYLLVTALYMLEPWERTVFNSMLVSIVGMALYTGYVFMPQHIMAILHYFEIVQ
Protocol: After culture for 3 days, the cells were recovered and frozen at −80° C. to obtain expressing cells. The frozen cells were suspended in a 50 mM Hepes buffer (pH 7.5) containing 250 mM sucrose, 5 mM ethylenediaminetetraacetic acid (EDTA), 5 mM dithiothreitol (DTT) and Complete, EDTA-free (Roche Applied Science, Penzberg, Upper Bavaria, Germany). The cells were disrupted (on ice, 20,000 rpm, 20 sec×2) using POLYTORON (Central Scientific Commerce, Inc.). After centrifugation at 2000 rpm (850×g) for 10 minutes, the supernatant was recovered. Subsequently, the supernatant was centrifuged at 40,000 rpm (186,010×g) for 60 minutes, and the supernatant was discarded. The pellets were suspended in a 50 mM Hepes buffer (pH 7.5) containing 5 mM EDTA, 5 mM DTT and Complete, EDTA-free, passed through a 40-μm cell strainer and stored at −80° C. The resultant was used as a SPT2-expressing membrane fraction. The protein concentration was determined using CBB Protein Assay with bovine serum albumin used as standards.
5 μL of each test compound was mixed with 10 μL of the 100 μg/mL SPT2-expressing membrane fraction using an assay buffer (100 mM Hepes (pH 8.0) containing 2.5 mM EDTA, 5 mM DTT and 0.01% fatty acid-free bovine serum albumin), and the mixture was left standing at room temperature for 60 minutes. Subsequently, 5 μL of a substrate solution containing 2 mM L-serine and 20 μM palmitoyl CoA was added thereto, and an enzyme reaction was carried out in a 384-well plate using 20 μL in total of the reaction system. After reaction at room temperature for 15 minutes, the reaction was terminated by the addition of 20 μL of a 2% aqueous formic acid solution. Subsequently, 40 μL of acetonitrile containing 600 nM C17-sphinganine (Avanti Polar Lipids, Inc., Alabaster, Ala., U.S.) was added thereto as an internal standard. The reaction sample was subjected to on-line solid-layer extraction using RapidFire 300 (Agilent Technologies Inc., Santa Clara, Calif., U.S.). […] Mass chromatograms were obtained using Analyst software (version 1.5.0, AB SCIEX). Their mass chromatogram areas were respectively calculated, and the rate of inhibition (%) by the test compound was calculated using an area ratio (the value of the reaction product was divided by the value of the internal standard).

[2] = system: lung adenocarcinoma cell line HCC4006; assay: HCC4006 cell growth inhibition test (Test Example 2); type: cell-based; details: Homo sapiens, 120 h; 1 μM test compound; HCC4006 cells, culture for 5 days, CellTiter-Glo; read-out: Rate of inhibition (%) at 1 μM
Protocol: A lung adenocarcinoma cell line HCC4006 (ATCC) was cultured using an RPMI-1640 medium (Wako Pure Chemical Industries, Ltd.) containing 10% fetal bovine serum and penicillin/streptomycin. 250 cells per well were inoculated into 40 μL of a medium in a 384-well culture plate. On the next day, 10 μL of each test compound was added to the cells. After culture for 5 days, the medium was discarded, and 30 μL of CellTiter-Glo Luminescent Cell Viability Assay solution (Promega Corp., Fitchburg, Wis., U.S.) was added to each well. Light emission signals were measured using EnVision (PerkinElmer, Inc., Waltham, Mass., U.S.).
The rate of inhibition (%) by the test compound was calculated according to the following expression: Rate of inhibition (%)=(1−(Count of the test compound−Blank)/(Control−Blank))×100
In the above expression, a count under compound non-addition conditions was indicated as a control, and a count under cell-free conditions was indicated as a blank.

inhibition at 1 µM [1] | Compound | inhibition at 1 µM [2]
95% | COc1ccc(C(=O)N2CC[C@@H](NC(=O)c3ccccc3OC(F)(F)F)[C@@H](N3CCCCC3)C2)cc1OC (relative stereo) [Example 55B, N-(cis-1′-(3,4-Dimethoxybenzoyl)-1,3′-bipiperidin-4′-yl)-2-(trifluoromethoxy)benzamide] | 
97% | COc1cc(C(=O)N2CC[C@@H](NC(=O)c3ccccc3OC(F)(F)F)[C@H](N3CCCCC3)C2)cnc1OC (relative stereo) [Example 253B, N-(trans-1′-((5,6-Dimethoxypyridin-3-yl)carbonyl)-1,3′-bipiperidin-4′-yl)-2-(trifluoromethoxy)benzamide] | 
89% | COc1ccc(C(=O)N2CC[C@@H](NC(=O)c3ccccc3Cl)[C@H](c3sccc3C)C2)cc1OC (relative stereo) [Example 270B, 2-chloro-N-(trans-1-(3,4-dimethoxybenzoyl)-3-(3-methyl-2-thienyl)piperidin-4-yl)benzamide] | 
82% | COc1cc(C(=O)N2CC[C@@H](NC(=O)c3ccccc3OC(F)(F)F)[C@H](n3cccn3)C2)cnc1OC (relative stereo) [Example 276B, N-(trans-1-((5,6-dimethoxypyridin-3-yl)carbonyl)-3-(1H-pyrazol-1-yl)piperidin-4-yl)-2-(trifluoromethoxy)benzamide] | 
91% | COc1ccc(C(=O)N2CCC(NC(=O)c3ccccc3Cl)c3nn(C)cc32)cc1OC (stereo not shown) [Example 1A, 2-Chloro-N-(4-(3,4-dimethoxybenzoyl)-2-methyl-4,5,6,7-tetrahydro-2H-pyrazolo[4,3-b]pyridin-7-yl)benzamide] | 
 | COc1ccc(C(=O)N2CCC(NC(=O)c3ccccc3Cl)c3c2cnn3C)cc1OC (stereo not shown) [Example 2A, 2-Chloro-N-(4-(3,4-dimethoxybenzoyl)-1-methyl-4,5,6,7-tetrahydro-1H-pyrazolo[4,3-b]pyridin-7-yl)benzamide] | 36%
 | COc1ccc(C(=O)N2CC[C@@H](NC(=O)c3ccccc3Cl)[C@@H](c3ccccc3)C2)cc1OC [Example 2B, 2-chloro-N-((3S,4R)-1-(3,4-dimethoxybenzoyl)-3-phenylpiperidin-4-yl)benzamide] | 55%
 | COc1ccc(C(=O)N2CC[C@@H](NC(=O)c3ccccc3Cl)[C@H](c3ccccc3)C2)cc1OC [Example 3B, 2-chloro-N-((3R,4R)-1-(3,4-dimethoxybenzoyl)-3-phenylpiperidin-4-yl)benzamide] | 44%
84% | COc1ccc(C(=O)N2CCC(NC(=O)c3ccccc3Cl)c3noc(C)c32)cc1OC (stereo not shown) [Example 17A, 2-Chloro-N-[4-(3,4-dimethoxybenzoyl)-3-methyl-4,5,6,7-tetrahydro[1,2]oxazolo[4,3-b]pyridin-7-yl]benzamide] | 
93% | COc1ccc(C(=O)N2CCC(NC(=O)c3ccccc3Cl)c3nscc32)cc1OC (stereo not shown) [Example 30A, 2-Chloro-N-[4-(3,4-dimethoxybenzoyl)-4,5,6,7-tetrahydro[1,2]thiazolo[4,3-b]pyridin-7-yl]benzamide] | 
 | COc1ccc(C(=O)N2CCC(NC(=O)c3ccccc3Cl)c3c2cnn3C(C)C)cc1OC (stereo not shown) [Example 36A, 2-Chloro-N-(4-(3,4-dimethoxybenzoyl)-1-isopropyl-4,5,6,7-tetrahydro-1H-pyrazolo[4,3-b]pyridin-7-yl)benzamide] | 47%
82% | COc1ccc(C(=O)N2CCC(NC(=O)c3sccc3Cl)c3c2cnn3C)cc1OC (stereo not shown) [Example 64A, 3-chloro-N-(4-(3,4-dimethoxybenzoyl)-1-methyl-4,5,6,7-tetrahydro-1H-pyrazolo[4,3-b]pyridin-7-yl)thiophene-2-carboxamide] | 
94% | COc1cc(C(=O)N2CC[C@@H](NC(=O)c3ncccc3C(F)(F)F)[C@@H](c3ccccc3)C2)n(C)n1 [Example 72B, N-((3S,4R)-1-((3-methoxy-1-methyl-1H-pyrazol-5-yl)carbonyl)-3-phenylpiperidin-4-yl)-3-(trifluoromethyl)pyridine-2-carboxamide] | 
94% | COc1ccc(C(=O)N2CCC(NC(=O)c3cnccc3C(F)(F)F)c3c2cnn3C)cc1OC (stereo not shown) [Example 91A, N-(4-(3,4-dimethoxybenzoyl)-1-methyl-4,5,6,7-tetrahydro-1H-pyrazolo[4,3-b]pyridin-7-yl)-4-(trifluoromethyl)nicotinamide] | 
95% | COc1ccc(C(=O)N2CCC(NC(=O)c3cccnc3C(F)(F)F)c3c2cnn3C)cc1OC (stereo not shown) [Example 103A, N-(4-(3,4-dimethoxybenzoyl)-1-methyl-4,5,6,7-tetrahydro-1H-pyrazolo[4,3-b]pyridin-7-yl)-2-(trifluoromethyl)nicotinamide] | 
84% | COc1ccc(C(=O)N2CCC(NC(=O)c3ccccc3Cl)c3c(C)nsc32)cc1OC (stereo not shown) [Example 117A, 2-Chloro-N-(7-(3,4-dimethoxybenzoyl)-3-methyl-4,5,6,7-tetrahydro[1,2]thiazolo[5,4-b]pyridin-4-yl)benzamide] | 
98% | COc1cc(C(=O)N2CC[C@@H](NC(=O)c3ccnn3C)[C@@H](c3ccccc3)C2)cnc1OC [Example 144B, N-((3S,4R)-1-((5,6-dimethoxypyridin-3-yl)carbonyl)-3-phenylpiperidin-4-yl)-1-methyl-1H-pyrazole-5-carboxamide] | 
93% | COc1ccc(C(=O)N2CCC(NC(=O)c3ccccc3Cl)c3c(C)nn(C)c32)cc1OC (stereo not shown) [Example 172A, 2-Chloro-N-(7-(3,4-dimethoxybenzoyl)-1,3-dimethyl-4,5,6,7-tetrahydro-1H-pyrazolo[3,4-b]pyridin-4-yl)benzamide] | 
102% | COc1ccc(C(=O)N2CCC(NC(=O)c3ccccc3Cl)c3ccc(Cl)nc32)cc1OC (stereo not shown) [Example 217A, 2-Chloro-N-(7-chloro-1-(3,4-dimethoxybenzoyl)-1,2,3,4-tetrahydro-1,8-naphthyridin-4-yl)benzamide] | 
